From ChEMBL document CHEMBL3045171, “Design and synthesis of some pyrazole derivatives of expected anti-inflammatory and analgesic activities” (Med Chem Res, 2012)

Assays:
[1] = test system: Rattus norvegicus; test: Anti-inflammatory activity in Rattus norvegicus albino (rat) assessed as inhibition of carrageenan-induced paw edema at 25 mg/kg, ip pretreated 30 min prior to carrageenan administration measured 2 hr after carrageenan challenge (reference value: 0%); assay type: functional; conditions: route intraperitoneal
[2] = test system: Mus musculus; test: Analgesic activity in Mus musculus (mouse) assessed as inhibition of p-benzoquinone-induced writhing at 25 mg/kg, ip pretreated 30 min prior to carrageenan administration measured 2 hr after carrageenan challenge (reference value: 0%); assay type: functional; conditions: route intraperitoneal
[3] = test system: Rattus norvegicus; test: Anti-inflammatory activity in Rattus norvegicus albino (rat) assessed as inhibition of carrageenan-induced paw edema at 25 mg/kg, ip pretreated 30 min prior to carrageenan administration measured 1 hr after carrageenan challenge (reference value: 0%); assay type: functional; conditions: route intraperitoneal
[4] = test system: Mus musculus; test: Analgesic activity in Mus musculus (mouse) assessed as inhibition of p-benzoquinone-induced writhing at 25 mg/kg, ip pretreated 30 min prior to carrageenan administration measured 1 hr after carrageenan challenge (reference value: 0%); assay type: functional; conditions: route intraperitoneal
[5] = test system: Rattus norvegicus; test: Anti-inflammatory activity in Rattus norvegicus albino (rat) assessed as inhibition of carrageenan-induced paw edema at 25 mg/kg, ip pretreated 30 min prior to carrageenan administration measured 3 hr after carrageenan challenge (reference value: 0%); assay type: functional; conditions: route intraperitoneal
[6] = Toxicity in ip dosed Mus musculus (mouse) after 24 hr; assay type: organism-based; conditions: in vivo
[7] = test system: Rattus norvegicus; test: Gastrointestinal toxicity in Rattus norvegicus albino (rat) assessed as ulcer index at 25 mg/kg, po for 3 days measured 2 hr after last dose; assay type: organism-based; design: dose 25 mg/kg, route oral; conditions: in vivo
[8] = test system: Mus musculus; test: Analgesic activity in Mus musculus (mouse) assessed as inhibition of p-benzoquinone-induced writhing at 25 mg/kg, ip pretreated 30 min prior to carrageenan administration measured 3 hr after carrageenan challenge (reference value: 0%); assay type: functional; conditions: route intraperitoneal
[9] = test system: Mus musculus; test: Analgesic activity in Mus musculus (mouse) assessed as inhibition of p-benzoquinone-induced writhing at 25 mg/kg, ip pretreated 30 min prior to carrageenan administration measured 4 hr after carrageenan challenge (reference value: 0%); assay type: functional; conditions: route intraperitoneal
[10] = test system: Rattus norvegicus; test: Anti-inflammatory activity in Rattus norvegicus albino (rat) assessed as inhibition of carrageenan-induced paw edema at 25 mg/kg, ip pretreated 30 min prior to carrageenan administration measured 4 hr after carrageenan challenge (reference value: 0%); assay type: functional; conditions: route intraperitoneal

Row | Compound | inhibition in vivo at 25 mg/kg [1] [%] | inhibition in vivo at 25 mg/kg [2] [%] | inhibition in vivo at 25 mg/kg [3] [%] | inhibition in vivo at 25 mg/kg [4] [%] | inhibition in vivo at 25 mg/kg [5] [%] | LD50 at 24 h [6] [mg/kg] | UI [7] | inhibition in vivo at 25 mg/kg [8] [%] | inhibition in vivo at 25 mg/kg [9] [%] | inhibition in vivo at 25 mg/kg [10] [%]
1 | C=C(C)C(=O)c1ccc(OC)cc1OC | 29.8 | 20 | 23.7 | 20 | 31.5 | 278 | 15.24 | 0 | 0 | 32.3
2 | C=C(C(=O)c1ccc(OC)cc1OC)c1ccccc1 | 1.43 |  | 0 |  | 1.92 | 232 |  |  |  | 2.9
3 | COc1ccc(C2=NNCC2C)c(OC)c1 (stereo unspecified) | 44.5 | 60 | 40.4 | 80 | 45.1 | 292 | 11.67 | 40 | 20 | 44.4
4 | COc1ccc(C2=NNCC2c2ccccc2)c(OC)c1 (stereo unspecified) | 0 |  | 0 |  | 1.8 | 278 |  |  |  | 1.92
5 | COc1ccc(C2=NN(C(=O)NS(=O)(=O)c3ccc(C)cc3)CC2C)c(OC)c1 (stereo unspecified) | 27.3 | 20 | 23.7 | 20 | 25.2 | 232 |  | 0 | 0 | 25.1
6 | COc1ccc(C2=NN(C(=O)NS(=O)(=O)c3ccc(Cl)cc3)CC2C)c(OC)c1 (stereo unspecified) | 14.6 |  | 12.2 |  | 16.4 | 248 |  |  |  | 18.8
7 | COc1ccc(C2=NN(C(=O)NS(=O)(=O)c3ccc(C)cc3)CC2c2ccccc2)c(OC)c1 (stereo unspecified) | 6.33 |  | 4.9 |  | 4.83 | 292 |  |  |  | 7.21
8 | COc1ccc(C2=NN(C(=O)NS(=O)(=O)c3ccc(Cl)cc3)CC2c2ccccc2)c(OC)c1 (stereo unspecified) | 27.3 | 40 | 24.1 | 40 | 25.7 | 248 |  | 20 | 0 | 23.6
9 | COc1ccc(C2=NN(C(=S)NC(=O)c3ccc(Cl)cc3)CC2C)c(OC)c1 (stereo unspecified) | 0 |  | 0 |  | 1.94 | 232 |  |  |  | 1.43
10 | COc1ccc(C2=NN(C(=S)NC(=O)c3ccc(Cl)cc3)CC2c2ccccc2)c(OC)c1 (stereo unspecified) | 0 |  | 0 |  | 1.43 | 292 |  |  |  | 1.92
11 | CCOC(=O)C(=O)C(C)C(=O)c1ccc(OC)cc1OC (stereo unspecified) | 27.2 |  | 23.7 |  | 26.1 | 278 |  |  |  | 24.6
12 | CCOC(=O)C(=O)C(C(=O)c1ccc(OC)cc1OC)c1ccccc1 (stereo unspecified) | 20 |  | 15.1 |  | 20.8 | 278 |  |  |  | 21.2
13 | CCOC(=O)c1nn(-c2ccccc2)c(-c2ccc(OC)cc2OC)c1C | 4.86 |  | 4.9 |  | 5.81 | 278 |  |  |  | 5.77
14 | CCOC(=O)c1nn(-c2ccc(Cl)cc2)c(-c2ccc(OC)cc2OC)c1C | 1.43 | 40 | 0 | 40 | 2.22 | 248 |  | 20 | 0 | 2.38
15 | CCOC(=O)c1nn(-c2ccccc2)c(-c2ccc(OC)cc2OC)c1-c1ccccc1 | 20.5 |  | 17.7 |  | 20.8 | 292 |  |  |  | 20.2
16 | CCOC(=O)c1nn(-c2ccc(Cl)cc2)c(-c2ccc(OC)cc2OC)c1-c1ccccc1 | 12.7 |  | 6.89 |  | 15 | 278 |  |  |  | 15.4
17 | COc1ccc(-c2c(C)c(C(=O)O)nn2-c2ccc(Cl)cc2)c(OC)c1 | 28.4 | 20 | 24.7 | 40 | 22.8 | 232 |  | 20 | 0 | 22.7
18 | COc1ccc(-c2c(-c3ccccc3)c(C(=O)O)nn2-c2ccc(Cl)cc2)c(OC)c1 | 42 | 60 | 37 | 80 | 45.5 | 232 | 11.56 | 40 | 20 | 42.5
19 | COc1ccc(C(=O)Cc2ccccc2)c(OC)c1 | 11.2 |  | 5.91 |  | 15 | 278 |  |  |  | 15.9
20 | Cc1ccc(-c2cc(C(F)(F)F)nn2-c2ccc(S(N)(=O)=O)cc2)cc1 [CELECOXIB] | 61.1 | 100 | 54.2 | 100 | 64 | 250 | 8.4 | 80 | 80 | 62.8
21 | CC(C)Cc1ccc(C(C)C(=O)O)cc1 (stereo unspecified) [IBUPROFEN] | 63.5 |  | 55.4 |  | 66.7 |  | 22.92 |  |  | 76.1
